Measured values from patent US10577363B2, “Substituted piperidine compounds” (EPIZYME, INC., priority 2014, dated 2020).

Biological target: SMYD3 (Homo sapiens (Human), UniProt Q9H7B4)
Assay: SMYD3 biochemical assay (SPA, 3H-SAM methylation of MEKK2 protein substrate)
Details: read-out: SMYD3 Biochem IC50 (μM)*
Text: S-adenosylmethionine (SAM), S-adenosylhomocysteine (SAH), Tris, Tween20, dimethylsulfoxide (DMSO), bovine skin gelatin (BSG), and Tris(2-carboxyethyl)phosphine hydrochloride solution (TCEP) were purchased from Sigma-Aldrich at the highest level of purity possible. ^3H-SAM was purchase from American Radiolabeled Chemicals with a specific activity of 80 Ci/mmol. 384-well opaque white OptiPlates and SPA beads (Perkin Elmer, catalog # RPNQ0013) were purchased from PerkinElmer.
N-terminally GST-tagged MEKK2 (MAP3K2) protein corresponding to reference sequence AAF63496.3 was purchased from Life Technologies (catalog # PV4010). This protein was expressed in High Five insect cells and purified to >85% purity. Protein identity was confirmed by MS/MS analysis after proteolytic digestion. The protein sequence used was:
Full-length human SMYD3 isoform 1 (BAB86333) was inserted into a modified pET21b plasmid containing a His6 tag and TEV and SUMO cleavage sites.
E. coli (BL21 codonplus RIL strain, Stratagene) were transformed with plasmid pEPZ553 by mixing competent cells and plasmid DNA and incubating on ice for 30 minutes followed by heat shock at 42° C. for 1 minute and cooling on ice for 2 minutes. Transformed cells were grown and selected on LB agar with 100 μg/mL ampicillin and 17 μg/mL chloramphenicol at 37° C. overnight. A single clone was used to inoculate 200 mL of LB medium with 100 μg/mL ampicillin and 17 μg/mL chloramphenicol and incubated at 37° C. on an orbital shaker at 180 rpm. Once in log growth, the culture was diluted 1:100 into 2 L of LB medium and grown until OD600 was about 0.3 after which the culture was incubated at 15° C. and 160 rpm. Once OD600 reached about 0.4, IPTG was added to a final concentration of 0.1 mM and the cells were grown overnight at 15° C. and 160 rpm. Cells were harvested by centrifugation at 8000 rpm, for 4 minutes at 4° C. and stored at −80° C. for purification.
The column was washed with Buffer B (Buffer A plus 20 mM imidazole) and His-tagged SMYD3 was eluted with Buffer C (Buffer A plus 300 mM imidazole). The His tag, TEV and SUMO cleavage sites were removed generating native SMYD3 by addition of ULP1 protein at a ratio of 1:200 (ULP1:SMYD3). Imidazole was removed by dialysis overnight in Buffer A. The dialyzed solution was applied to a second Nickel column and the native SMYD3 protein was collected from the column flow-through. The flow-through was dialyzed in Buffer D (25 mM Tris, 5% glycerol, 5 mM β-mercaptoethanol, 50 mM NaCl, pH7.8) and ULP1 was removed using a Q sepharose fast flow column.
General Procedure for SMYD3 Enzyme Assays on MEKK2 Protein Substrate
The assays were all performed in a buffer consisting of 25 mM Tris-Cl pH 8.0, 1 mM TCEP, 0.005% BSG, and 0.005% Tween 20, prepared on the day of use. […] DMSO (1 ul) was added to Columns 11, 12, 23, 24, rows A-H for the maximum signal control and 1 ul of SAH, a known product and inhibitor of SMYD3, was added to columns 11, 12, 23, 24, rows I-P for the minimum signal control. A cocktail (40 ul) containing the SMYD3 enzyme was added by Multidrop Combi (Thermo-Fisher). The compounds were allowed to incubate with SMYD3 for 30 min at room temperature, then a cocktail (10 ul) containing SAM and MEKK2 was added to initiate the reaction (final volume=51 ul). […] The assays were stopped by the addition of non-radiolabeled SAM (10 ul) to a final concentration of 100 uM, which dilutes the ^3H-SAM to a level where its incorporation into MEKK2 is no longer detectable. Radiolabeled MEKK2 was detected using a scintillation proximity assay (SPA). 10 uL of a 10 mg/mL solution of SPA beads in 0.5 M citric acid was added and the plates centrifuged at 600 rpm for 1 min to precipitate the radiolabeled MEKK2 onto the SPA beads. The plates were then read in a PerkinElmer TopCount plate reader to measure the quantity of ^3H-labeled MEKK2 as disintegrations per minute (dpm) or alternatively, referred to as counts per minute (cpm).

Row | SMILES | IC50 [µM]
1 | N[C@@H](Cc1ccccc1)C(=O)N1CCC(NC(=O)c2cc(C3CC3)on2)CC1 [compound 1, N-(1-(L-phenylalanyl)piperidin-4-yl)-5-cyclopropylisoxazole-3-carboxamide] | 2.88
2 | N[C@H](Cc1c[nH]c2ccccc12)C(=O)N1CCC(NC(=O)c2cc(C3CC3)on2)CC1 [compound 2, N-(1-(D-tryptophyl)piperidin-4-yl)-5-cyclopropylisoxazole-3-carboxamide] | 15.5
3 | N[C@@H](Cc1ccc(O)cc1)C(=O)N1CCC(NC(=O)c2cc(C3CC3)on2)CC1 [compound 3, N-(1-(L-tyrosyl)piperidin-4-yl)-5-cyclopropylisoxazole-3-carboxamide] | 0.486
4 | NCC(=O)N[C@@H](Cc1c[nH]c2ccccc12)C(=O)N1CCC(NC(=O)c2cc(C3CC3)on2)CC1 [compound 4, 5-cyclopropyl-N-(1-(glycyl-L-tryptophyl)piperidin-4-yl)isoxazole-3-carboxamide] | 0.947
5 | C[C@@H]1CC(NC(=O)c2cc(C3CC3)on2)CCN1C(=O)[C@@H](N)Cc1ccc(O)cc1 (stereo partly drawn) [compound 6, N-((2R)-1-(L-tyrosyl)-2-methylpiperidin-4-yl)-5-cyclopropylisoxazole-3-carboxamide] | 2.97
6 | C[C@H]1CC(NC(=O)c2cc(C3CC3)on2)CCN1C(=O)[C@@H](N)Cc1ccc(O)cc1 (stereo partly drawn) [compound 7, N-((2S)-1-(L-tyrosyl)-2-methylpiperidin-4-yl)-5-cyclopropylisoxazole-3-carboxamide] | 1.04
7 | CN[C@@H](Cc1cn(C)c2ccccc12)C(=O)N1CCC(NC(=O)c2cc(C3CC3)on2)CC1 [compound 8, 5-cyclopropyl-N-(1-(Na,1-dimethyl-L-tryptophyl)piperidin-4-yl)isoxazole-3-carboxamide] | 1.2
8 | N[C@@H](Cc1ccc(O)c(Br)c1)C(=O)N1CCC(NC(=O)c2cc(C3CC3)on2)CC1 [compound 9, (S)-N-(1-(2-amino-3-(3-bromo-4-hydroxyphenyl)propanoyl)piperidin-4-yl)-5-cyclopropylisoxazole-3-carboxamide] | 0.214
9 | NC[C@H](Cc1ccccc1)C(=O)N1CCC(NC(=O)c2cc(C3CC3)on2)CC1 [compound 11, (S)-N-(1-(3-amino-2-benzylpropanoyl)piperidin-4-yl)-5-cyclopropylisoxazole-3-carboxamide] | 2.41
10 | N[C@H]1CC[C@H](C(=O)N2CCC(NC(=O)c3cc(C4CC4)on3)CC2)CC1 [compound 13, N-(1-((1r,4R)-4-aminocyclohexane-1-carbonyl)piperidin-4-yl)-5-cyclopropylisoxazole-3-carboxamide] | 1.29
11 | N[C@@H](Cc1ccc(O)cc1)CN1CCC(NC(=O)c2cc(C3CC3)on2)CC1 [compound 14, (S)-N-(1-(2-amino-3-(4-hydroxyphenyl)propyl)piperidin-4-yl)-5-cyclopropylisoxazole-3-carboxamide] | 4.59
12 | O=C(NC1CCN(C(=O)C2CCNCC2)CC1)c1cc(C2CC2)on1 [compound 15, 5-cyclopropyl-N-(1-(piperidine-4-carbonyl)piperidin-4-yl)isoxazole-3-carboxamide] | 8.55
13 | CN1CCC(C(=O)N2CCC(NC(=O)c3cc(C4CC4)on3)CC2)CC1 [compound 16, 5-cyclopropyl-N-(1-(1-methylpiperidine-4-carbonyl)piperidin-4-yl)isoxazole-3-carboxamide] | 10
14 | O=C(NC1CCN(C(=O)CC2CCNCC2)CC1)c1cc(C2CC2)on1 [compound 17, 5-cyclopropyl-N-(1-(2-(piperidin-4-yl)acetyl)piperidin-4-yl)isoxazole-3-carboxamide] | 1.06
15 | CN1CCC(CC(=O)N2CCC(NC(=O)c3cc(C4CC4)on3)CC2)CC1 [compound 18, 5-cyclopropyl-N-(1-(2-(1-methylpiperidin-4-yl)acetyl)piperidin-4-yl)isoxazole-3-carboxamide] | 5.08
16 | O=C(NC1CCN(C(=O)[C@@H](CO)Cc2ccccc2)CC1)c1cc(C2CC2)on1 [compound 19, (R)-N-(1-(2-benzyl-3-hydroxypropanoyl)piperidin-4-yl)-5-cyclopropylisoxazole-3-carboxamide] | 30.9
17 | N[C@H]1C[C@H](C(=O)N2CCC(NC(=O)c3cc(C4CC4)on3)CC2)C1 [compound 20, N-(1-((1r,3r)-3-aminocyclobutane-1-carbonyl)piperidin-4-yl)-5-cyclopropylisoxazole-3-carboxamide] | 5.77
18 | N[C@H]1C[C@@H](C(=O)N2CCC(NC(=O)c3cc(C4CC4)on3)CC2)C1 [compound 21, N-(1-((1s,3s)-3-aminocyclobutane-1-carbonyl)piperidin-4-yl)-5-cyclopropylisoxazole-3-carboxamide] | 5.69
19 | C[C@H]1CN(C(=O)[C@H]2CC[C@H](N)CC2)CCC1NC(=O)c1cc(C2CC2)on1 (stereo partly drawn) [compound 24, N-((3S)-1-((1r,4S)-4-aminocyclohexane-1-carbonyl)-3-methylpiperidin-4-yl)-5-cyclopropylisoxazole-3-carboxamide] | 2
20 | C[C@@H]1CN(C(=O)[C@H]2CC[C@H](N)CC2)CCC1NC(=O)c1cc(C2CC2)on1 (stereo partly drawn) [compound 25, N-((3R)-1-((1r,4R)-4-aminocyclohexane-1-carbonyl)-3-methylpiperidin-4-yl)-5-cyclopropylisoxazole-3-carboxamide] | 0.299
21 | NC[C@@H](Cc1ccc(O)cc1)C(=O)N1CCC(NC(=O)c2cc(C3CC3)on2)CC1 [compound 26, (R)-N-(1-(3-amino-2-(4-hydroxybenzyl)propanoyl)piperidin-4-yl)-5-cyclopropylisoxazole-3-carboxamide] | 5.24
22 | NC[C@H](Cc1ccc(O)cc1)C(=O)N1CCC(NC(=O)c2cc(C3CC3)on2)CC1 [compound 27, (S)-N-(1-(3-amino-2-(4-hydroxybenzyl)propanoyl)piperidin-4-yl)-5-cyclopropylisoxazole-3-carboxamide] | 0.342
23 | NC[C@@H](Cc1ccc(O)c(I)c1)C(=O)N1CCC(NC(=O)c2cc(C3CC3)on2)CC1 [compound 28, (R)-N-(1-(3-amino-2-(4-hydroxy-3-iodobenzyl)propanoyl)piperidin-4-yl)-5-cyclopropylisoxazole-3-carboxamide] | 2.04
24 | O=C(NC1CCN(C[C@H](O)Cc2ccc(O)cc2)CC1)c1cc(C2CC2)on1 [compound 30, (R)-5-cyclopropyl-N-(1-(2-hydroxy-3-(4-hydroxyphenyl)propyl)piperidin-4-yl)isoxazole-3-carboxamide] | 42.7
25 | O=C(NC1CCN(C(=O)[C@@H](CO)Cc2ccc(O)c(I)c2)CC1)c1cc(C2CC2)on1 [compound 31, (R)-5-cyclopropyl-N-(1-(3-hydroxy-2-(4-hydroxy-3-iodobenzyl)propanoyl)piperidin-4-yl)isoxazole-3-carboxamide] | 5.1
26 | C[C@H](N)CC(=O)NC[C@@H](Cc1ccc(O)c(I)c1)C(=O)N1CCC(NC(=O)c2cc(C3CC3)on2)CC1 [compound 32, N-(1-((R)-3-((S)-3-aminobutanamido)-2-(4-hydroxy-3-iodobenzyl)propanoyl)piperidin-4-yl)-5-cyclopropylisoxazole-3-carboxamide] | 4.11
27 | C[C@H](N)CC(=O)NC[C@H](Cc1ccc(O)c(I)c1)C(=O)N1CCC(NC(=O)c2cc(C3CC3)on2)CC1 [compound 33, N-(1-((S)-3-((S)-3-aminobutanamido)-2-(4-hydroxy-3-iodobenzyl)propanoyl)piperidin-4-yl)-5-cyclopropylisoxazole-3-carboxamide] | 0.473
